Data taken from patent US20210330611A1, “THERAPY FOR NEUROLOGICAL DISEASES/DISORDERS” (priority 2020, published 2021).
“And” between values parts separate entries of the source, which are not always exact repeats. Equal entries are not always repeated. Structures can show the parent of a compound that is named as a salt. Where two headings read alike, the source gives them in different places.

Legend:
[1] = tested on: LPS-induced microglia activation; assay: Image-based assay of LPS-induced microglia activation (HTS and dose response); assay type: cell-based, rat; settings: for inhibition at 10 µM: Rattus norvegicus, Microglia, read-out: LPS % inhibition
[2] = tested on: fibrin-induced microglia activation; assay: Image-based assay of fibrin-induced microglia activation (HTS and dose response); assay type: cell-based, rat; settings: for inhibition at 10 µM: Rattus norvegicus, Microglia, read-out: Fibrin % inhibition
[3] = tested on: fibrin- and LPS-induced microglia activation; assay: cells; assay type: cell-based, rat
[4] = primary microglia HTS, LPS stimulation, compounds at 10 μM
[5] = primary microglia HTS, fibrin stimulation, compounds at 10 μM
[6] = quadrant by fibrin and LPS inhibition, HTS at 10 μM
[7] = primary microglia HTS, LPS stimulation, compounds at 10 μM, 10 µM
[8] = 48 h, primary microglia HTS, LPS stimulation, increased cell size (>800 μm^2) as marker of activation
[9] = primary microglia HTS, fibrin stimulation, increased cell size (>800 μm^2) as marker of activation
[10] = quadrant by fibrin and LPS inhibition in HTS of 1907 compounds
[11] = primary HTS, 10 μM, LPS-stimulated primary microglia
[12] = primary HTS, 10 μM, fibrin-stimulated primary microglia
[13] = classification by fibrin and LPS inhibition, HTS at 10 μM
[14] = HTS of 1907 compounds, quadrant by fibrin and LPS inhibition
[15] = primary microglia HTS, 10 μM, LPS-stimulated, cell size >800 μm^2 as marker of activation

## CNC[C@H](O)c1ccc(O)c(O)c1.O=C(O)C(O)C(O)C(=O)O
[1]; 10 µM
  LPS % inhibition: 19%
Primary rat microglia
  LPS % cell toxicity: 0%
[2]; 10 µM
  Fibrin % inhibition: 35%
[3]
  Quadrant (FIG. 5b): Q4

## CC(NC(C)(C)C)C(=O)c1cccc(Cl)c1.Cl (stereo not drawn)
[1]; 10 µM
  LPS % inhibition: 27%
Primary rat microglia
  LPS % cell toxicity: 2%
[2]; 10 µM
  Fibrin % inhibition: −15%
[3]
  Quadrant (FIG. 5b): Q4

## NCCS(=O)(=O)O [2-Aminoethanesulfonic Acid]
[1]; [4]
  inhibition at 10 µM: 19%
Primary rat microglia; rat
  LPS % cell toxicity: 0%
[2]; [5]
  inhibition at 10 µM: -13%
[3]; [6]
  Quadrant (FIG. 5b): Q4

## CC(=O)N[C@@H](CS)C(=O)O [Acetylcysteine]
[1]; [4]
  inhibition at 10 µM: 7%
[1]; [7]
  LPS % inhibition: 13%
Primary rat microglia; rat
  LPS % cell toxicity: 0%
[3]; [6]
  Quadrant (FIG. 5b): Q4

## CN(C)c1nc(N(C)C)nc(N(C)C)n1 [Altretamine]
[1]; [4]
  inhibition at 10 µM: 16%
Primary rat microglia; rat
  LPS % cell toxicity: 0%
[2]; [5]
  inhibition at 10 µM: -29%
[3]; [6]
  Quadrant (FIG. 5b): Q4

## NC12CC3CC(CC(C3)C1)C2 [Amantadine]
[1]; [7]
  LPS % inhibition: 3% and −5%
Primary rat microglia; rat
  LPS % cell toxicity: 0%
[3]; [6]
  Quadrant (FIG. 5b): Q4

## CCOC(=O)C1=C(COCCN)NC(C)=C(C(=O)OC)C1c1ccccc1Cl (stereo not drawn) [Amlodipine]
[1]; [8]
  inhibition at 10 µM: 59%
[1]; [4]
  inhibition at 10 µM: 36%
Primary rat microglia; rat
  LPS % cell toxicity: 2%
[2]; [5]
  inhibition at 10 µM: -17%
[2]; [9]
  inhibition at 10 µM: -29%
[3]; [10]
  Quadrant (FIG. 5b): Q1
[3]; [6]
  Quadrant (FIG. 5b): Q4

## CCN(CC)Cc1cc(Nc2ccnc3cc(Cl)ccc23)ccc1O [Amodiaquine Dihydrochloride]
[1]; [8]
  inhibition at 10 µM: 114%
Primary rat microglia; rat
  LPS % cell toxicity: 85%
[2]; [9]
  inhibition at 10 µM: 4%
[3]; [10]
  Quadrant (FIG. 5b): Q1

## CC1CNc2c(cccc2S(=O)(=O)N[C@@H](CCCNC(=N)N)C(=O)N2CC[C@@H](C)C[C@@H]2C(=O)O)C1 (stereo partly drawn) [Argatroban]
[1]; [4]
  inhibition at 10 µM: 8%
Primary rat microglia; rat
  LPS % cell toxicity: 0%
[2]; [5]
  inhibition at 10 µM: -10%
[3]; [6]
  Quadrant (FIG. 5b): Q4

## O=C(CCCl)NCc1ccccc1 [Beclamide]
[1]; [4]
  inhibition at 10 µM: 2%
Primary rat microglia; rat
  LPS % cell toxicity: 0%
[2]; [5]
  inhibition at 10 µM: 19%
[3]; [6]
  Quadrant (FIG. 5b): Q4

## OC(CCN1CCCCC1)(c1ccccc1)C1CC2C=CC1C2 (stereo not drawn) [Biperiden]
[1]; [11]
  inhibition at 10 µM: 17%
Primary rat microglia; rat
  LPS % cell toxicity: 1%
[2]; [12]
  inhibition at 10 µM: 2%
[3]; primary HTS, 10 μM
  Quadrant (FIG. 5b): Q4

## CCN(CC)CCNC(=O)c1cc(Br)c(N)cc1OC [Bromopride]
[1]; [11]
  inhibition at 10 µM: 4%
Primary rat microglia; rat
  LPS % cell toxicity: 0%
[2]; [12]
  inhibition at 10 µM: -2%
[3]; primary HTS, 10 μM
  Quadrant (FIG. 5b): Q4

## O=C(CCCN1CCC(O)(c2ccc(Br)cc2)CC1)c1ccc(F)cc1 [Bromperidol]
[1]; [11]
  inhibition at 10 µM: 7%
Primary rat microglia; rat
  LPS % cell toxicity: 0%
[2]; [12]
  inhibition at 10 µM: -6%
[3]; primary HTS, 10 μM
  Quadrant (FIG. 5b): Q4

## Cn1c(=O)c2c(ncn2C)n(C)c1=O [Caffeine]
[1]
  inhibition at 10 µM: 10%
Primary rat microglia; rat
  LPS % cell toxicity: 0%
[2]
  inhibition at 10 µM: 2%
[3]
  Quadrant (FIG. 5b): Q4

## C[C@]12CCC(=O)C=C1C=C[C@@H]1[C@@H]2CC[C@@]2(C)[C@H]1CC[C@@]2(O)CCC(=O)O [Canrenoic Acid, Potassium Salt]
[1]; [11]
  inhibition at 10 µM: 8%
Primary rat microglia; rat
  LPS % cell toxicity: 0%
[2]; [12]
  inhibition at 10 µM: -8%
[3]; primary HTS, 10 μM
  Quadrant (FIG. 5b): Q4

## O=NN(CCCl)C(=O)NCCCl [Carmustine]
[1]; [11]
  inhibition at 10 µM: 9%
Primary rat microglia; rat
  LPS % cell toxicity: 0%
[2]; [12]
  inhibition at 10 µM: 1%
[3]; primary HTS, 10 μM
  Quadrant (FIG. 5b): Q4

## O=C(N[C@H](CO)[C@H](O)c1ccc([N+](=O)[O-])cc1)C(Cl)Cl [Chloramphenicol]
[1]; [11]
  inhibition at 10 µM: 6%
Primary rat microglia; rat
  LPS % cell toxicity: 0%
[2]; [12]
  inhibition at 10 µM: 19%
[3]; primary HTS, 10 μM
  Quadrant (FIG. 5b): Q4

## C[C@@H]1C[C@@H]([C@H](O)CC2CC(=O)NC(=O)C2)C(=O)[C@@H](C)C1 [Cycloheximide]
[1]; [8]
  inhibition at 10 µM: 123%
Primary rat microglia; rat
  LPS % cell toxicity: 45%
[2]; [9]
  inhibition at 10 µM: 108%
[3]; [10]
  Quadrant (FIG. 5b): Q2

## CC(C)NC[C@@H](O)COc1cccc2ccccc12 [Dexpropranolol Hydrochloride]
[1]
  inhibition at 10 µM: 19%
Primary rat microglia; rat
  LPS % cell toxicity: 0%
[2]
  inhibition at 10 µM: -21%
[3]
  Quadrant (FIG. 5b): Q4

## Cc1c(C(N)=O)cc([N+](=O)[O-])cc1[N+](=O)[O-] [Dinitolmide]
[1]
  inhibition at 10 µM: 10%
Primary rat microglia; rat
  LPS % cell toxicity: 0%
[2]
  inhibition at 10 µM: -45%
[3]
  Quadrant (FIG. 5b): Q4

## CN1CCC(OC(c2ccccc2)c2ccccc2)CC1 [Diphenylpyraline]
[1]
  inhibition at 10 µM: 6%
Primary rat microglia; rat
  LPS % cell toxicity: 0%
[2]
  inhibition at 10 µM: -69%
[3]
  Quadrant (FIG. 5b): Q4

## OCCN(CCO)c1nc(N2CCCCC2)c2nc(N(CCO)CCO)nc(N3CCCCC3)c2n1 [Dipyridamole]
[1]
  inhibition at 10 µM: 6%
Primary rat microglia; rat
  LPS % cell toxicity: 0%
[2]
  inhibition at 10 µM: 11%
[3]
  Quadrant (FIG. 5b): Q4

## O=C(O[C@@H]1C[C@@H]2C[C@H]3C[C@H](C1)N2CC3=O)c1c[nH]c2ccccc12 [Dolasetron]
[1]; [4]
  inhibition at 10 µM: -3%
Primary rat microglia; rat
  LPS % cell toxicity: 0%
[2]; [5]
  inhibition at 10 µM: -19%
[3]; [13]
  Quadrant (FIG. 5b): Q4

## CC[C@H]1CN2CCc3cc(OC)c(OC)cc3[C@@H]2C[C@@H]1C[C@H]1NCCc2cc(OC)c(OC)cc21 [Emetine, Emetine Dihydrochloride]
[1]
  LPS % inhibition: 115%
Primary rat microglia
  LPS % cell toxicity: 46%
[2]
  Fibrin % inhibition: 117%
[3]
  Quadrant (FIG. 5b): Q2

## C[C@H](N[C@@H](CCc1ccccc1)C(=O)O)C(=O)N1CCC[C@H]1C(=O)O [Enalaprilat]
[1]; [4]
  LPS % inhibition: 18%
Primary rat microglia
  LPS % cell toxicity: 0%
[2]; [5]
  Fibrin % inhibition: 25%
[3]; [13]
  Quadrant (FIG. 5b): Q4

## CC1(C)[C@@H](O)CC[C@]2(C)[C@H]3C(=O)C=C4[C@@H]5C[C@@](C)(C(=O)O)CC[C@]5(C)CC[C@@]4(C)[C@]3(C)CC[C@@H]12 [Enoxolone]
[1]; [4]
  inhibition at 10 µM: 7%
Primary rat microglia; rat
  LPS % cell toxicity: 0%
[2]; [5]
  inhibition at 10 µM: -40%
[3]; [13]
  Quadrant (FIG. 5b): Q4

## CCN1CCN(c2cc3c(cc2F)c(=O)c(C(=O)O)cn3C2CC2)CC1 [Enrofloxacin]
[1]; [4]
  inhibition at 10 µM: 23%
Primary rat microglia; rat
  LPS % cell toxicity: 1%
[2]; [5]
  inhibition at 10 µM: 5%
[3]; [13]
  Quadrant (FIG. 5b): Q4

## CCc1cc(C(N)=S)ccn1 [Ethionamide]
[1]
  inhibition at 10 µM: 14%
Primary rat microglia; rat
  LPS % cell toxicity: 0%
[2]
  inhibition at 10 µM: 17%
[3]
  Quadrant (FIG. 5b): Q4

## C#C[C@]1(O)CC[C@H]2[C@@H]3CCC4=CC(=O)CC[C@]4(C)[C@H]3CC[C@@]21C [Ethisterone]
[1]; [4]
  inhibition at 10 µM: 13%
Primary rat microglia; rat
  LPS % cell toxicity: 1%
[2]; [5]
  inhibition at 10 µM: -5%
[3]; [13]
  Quadrant (FIG. 5b): Q4

## COc1cc([C@@H]2c3cc4c(cc3[C@@H](O[C@@H]3O[C@@H]5CO[C@@H](C)O[C@H]5[C@H](O)[C@H]3O)[C@H]3COC(=O)[C@H]23)OCO4)cc(OC)c1O [Etoposide]
[1]; [4]
  inhibition at 10 µM: 15%
Primary rat microglia; rat
  LPS % cell toxicity: 0%
[2]; [5]
  inhibition at 10 µM: 30%
[3]; [13]
  Quadrant (FIG. 5b): Q4

## COCCCC/C(=N\OCCN)c1ccc(C(F)(F)F)cc1 [Fluvoxamine]
[1]; 48 h, primary microglia HTS, LPS stimulation, activation = cell size >800 μm2
  inhibition at 10 µM: -3%
Primary rat microglia; rat
  LPS % cell toxicity: 0%
[2]; primary microglia HTS, fibrin stimulation, activation = cell size >800 μm2
  inhibition at 10 µM: -8%
[3]; [10]
  Quadrant (FIG. 5b): Q4

## CCN(CC)C(=O)N[C@H]1C=C2c3cccc4[nH]cc(c34)C[C@H]2N(C)C1 [Lisuride]
Primary rat microglia; rat
  LPS % cell toxicity: 0%
[3]
  Quadrant (FIG. 5b): Q4

## CNCCCC12CCC(c3ccccc31)c1ccccc12 [Maprotiline]
[1]
  LPS % inhibition: 78%
Primary rat microglia; rat
  LPS % cell toxicity: 2%
[2]
  Fibrin % inhibition: −4%

## CC#C[C@]1(O)CC[C@H]2[C@@H]3CCC4=CC(=O)CCC4=C3[C@@H](c3ccc(N(C)C)cc3)C[C@@]21C [Mifepristone]
Primary rat microglia; rat
  LPS % cell toxicity: 0%
[2]; [9]
  inhibition at 10 µM: 12%
[3]; [10]
  Quadrant (FIG. 5b): Q4

## O=C(O)C(O)C(O)C(=O)O.OCc1cccnc1 (stereo not drawn) [Nicotinyl Alcohol Tartrate]
Primary rat microglia; rat
  LPS % cell toxicity: 0%
[3]; [10]
  Quadrant (FIG. 5b): Q4

## CN1CCN(CCCN2c3ccccc3Sc3ccc(Cl)cc32)CC1 [Prochlorperazine]
[1]; 48 h
  inhibition at 10 µM: 17%
Primary rat microglia; rat
  LPS % cell toxicity: 1%
[2]
  inhibition at 10 µM: 6%

## Cc1nc2n(c(=O)c1CCN1CCC(c3noc4cc(F)ccc34)CC1)CCCC2 [Risperidone]
Primary rat microglia; rat
  LPS % cell toxicity: 0%
[3]
  Quadrant (FIG. 5b): Q4

## Cn1nnc2c(C(N)=O)ncn2c1=O [Temozolomide]
Primary rat microglia; rat
  LPS % cell toxicity: 0%
[2]; primary microglia HTS, 10 μM, fibrin-stimulated, cell size >800 μm^2 as marker of activation
  Fibrin % inhibition: −31% and −26%
[3]; [14]
  Quadrant (FIG. 5b): Q4

## Cc1ncc(C[n+]2csc(CCO)c2C)c(N)n1 [Thiamine]
Primary rat microglia; rat
  LPS % cell toxicity: 0%
[3]
  Quadrant (FIG. 5b): Q4

## CCCc1nc(C)c2c(=O)[nH]c(-c3cc(S(=O)(=O)N4CCN(CC)CC4)ccc3OCC)nn12 [Vardenafil]
[1]; [15]
  inhibition at 10 µM: 12%
  LPS % inhibition: 13%
Primary rat microglia; rat
  LPS % cell toxicity: 0%
[3]; [14]
  Quadrant (FIG. 5b): Q4
